Test results from ChEMBL document CHEMBL5154883, “Conformational Constrained 4-(1-Sulfonyl-3-indol)yl-2-phenylaminopyrimidine Derivatives as New Fourth-Generation Epidermal Growth Factor Receptor Inhibitors Targeting T790M/C797S Mutations” (J Med Chem, 2022).

Assays:
[1] = target: Epidermal growth factor receptor (Homo sapiens, UniProt P00533); assay: Inhibition of wild type EGFR (unknown origin) by ELISA
[2] = target: Epidermal growth factor receptor (Homo sapiens, UniProt P00533, C797S/EX19DEL/T790M); assay: Inhibition of EGFR 19 del/T790M/C797S mutant (unknown origin) by ELISA
Chain of Epidermal growth factor receptor (Homo sapiens, UniProt P00533, C797S/EX19DEL/T790M) (P00533 whole entry, looked up, stated change not applied): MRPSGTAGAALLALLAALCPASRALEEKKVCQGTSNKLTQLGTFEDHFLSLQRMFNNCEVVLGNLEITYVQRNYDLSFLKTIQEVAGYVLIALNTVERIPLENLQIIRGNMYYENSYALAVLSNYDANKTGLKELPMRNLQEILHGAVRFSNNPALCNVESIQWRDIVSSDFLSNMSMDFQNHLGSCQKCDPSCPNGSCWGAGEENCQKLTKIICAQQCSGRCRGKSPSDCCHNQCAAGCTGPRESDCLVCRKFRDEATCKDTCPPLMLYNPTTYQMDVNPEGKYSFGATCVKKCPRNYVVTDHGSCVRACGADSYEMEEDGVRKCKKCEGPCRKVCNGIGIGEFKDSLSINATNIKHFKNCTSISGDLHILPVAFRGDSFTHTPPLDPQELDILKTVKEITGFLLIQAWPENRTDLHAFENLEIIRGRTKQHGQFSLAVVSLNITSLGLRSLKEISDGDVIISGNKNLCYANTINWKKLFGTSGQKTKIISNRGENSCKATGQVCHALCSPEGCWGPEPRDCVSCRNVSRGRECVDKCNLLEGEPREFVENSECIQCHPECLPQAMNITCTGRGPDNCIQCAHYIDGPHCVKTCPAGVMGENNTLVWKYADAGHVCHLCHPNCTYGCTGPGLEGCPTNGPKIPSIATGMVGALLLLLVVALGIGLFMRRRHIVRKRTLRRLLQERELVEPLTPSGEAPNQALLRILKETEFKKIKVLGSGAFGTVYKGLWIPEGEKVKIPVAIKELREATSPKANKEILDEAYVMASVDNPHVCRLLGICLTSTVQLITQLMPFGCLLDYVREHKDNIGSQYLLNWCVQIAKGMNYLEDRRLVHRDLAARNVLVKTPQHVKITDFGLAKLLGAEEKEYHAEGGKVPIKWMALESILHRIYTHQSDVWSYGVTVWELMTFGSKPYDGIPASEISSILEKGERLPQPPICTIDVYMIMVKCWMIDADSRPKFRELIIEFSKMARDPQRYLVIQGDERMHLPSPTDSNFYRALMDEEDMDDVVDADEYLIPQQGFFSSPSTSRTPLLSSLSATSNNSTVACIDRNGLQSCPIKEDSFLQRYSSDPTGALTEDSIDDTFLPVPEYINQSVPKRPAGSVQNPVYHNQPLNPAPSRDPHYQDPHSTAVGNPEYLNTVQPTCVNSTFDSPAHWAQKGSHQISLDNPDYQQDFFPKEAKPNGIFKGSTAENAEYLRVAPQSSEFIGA

[3] = target: Epidermal growth factor receptor (Homo sapiens, UniProt P00533, C797S/L858R/T790M); assay: Inhibition of EGFR L858R/T790M/C797S mutant (unknown origin) by ELISA
Chain of Epidermal growth factor receptor (Homo sapiens, UniProt P00533, C797S/L858R/T790M) (P00533 25-1210 T790M/C797S/L858R limits assumed): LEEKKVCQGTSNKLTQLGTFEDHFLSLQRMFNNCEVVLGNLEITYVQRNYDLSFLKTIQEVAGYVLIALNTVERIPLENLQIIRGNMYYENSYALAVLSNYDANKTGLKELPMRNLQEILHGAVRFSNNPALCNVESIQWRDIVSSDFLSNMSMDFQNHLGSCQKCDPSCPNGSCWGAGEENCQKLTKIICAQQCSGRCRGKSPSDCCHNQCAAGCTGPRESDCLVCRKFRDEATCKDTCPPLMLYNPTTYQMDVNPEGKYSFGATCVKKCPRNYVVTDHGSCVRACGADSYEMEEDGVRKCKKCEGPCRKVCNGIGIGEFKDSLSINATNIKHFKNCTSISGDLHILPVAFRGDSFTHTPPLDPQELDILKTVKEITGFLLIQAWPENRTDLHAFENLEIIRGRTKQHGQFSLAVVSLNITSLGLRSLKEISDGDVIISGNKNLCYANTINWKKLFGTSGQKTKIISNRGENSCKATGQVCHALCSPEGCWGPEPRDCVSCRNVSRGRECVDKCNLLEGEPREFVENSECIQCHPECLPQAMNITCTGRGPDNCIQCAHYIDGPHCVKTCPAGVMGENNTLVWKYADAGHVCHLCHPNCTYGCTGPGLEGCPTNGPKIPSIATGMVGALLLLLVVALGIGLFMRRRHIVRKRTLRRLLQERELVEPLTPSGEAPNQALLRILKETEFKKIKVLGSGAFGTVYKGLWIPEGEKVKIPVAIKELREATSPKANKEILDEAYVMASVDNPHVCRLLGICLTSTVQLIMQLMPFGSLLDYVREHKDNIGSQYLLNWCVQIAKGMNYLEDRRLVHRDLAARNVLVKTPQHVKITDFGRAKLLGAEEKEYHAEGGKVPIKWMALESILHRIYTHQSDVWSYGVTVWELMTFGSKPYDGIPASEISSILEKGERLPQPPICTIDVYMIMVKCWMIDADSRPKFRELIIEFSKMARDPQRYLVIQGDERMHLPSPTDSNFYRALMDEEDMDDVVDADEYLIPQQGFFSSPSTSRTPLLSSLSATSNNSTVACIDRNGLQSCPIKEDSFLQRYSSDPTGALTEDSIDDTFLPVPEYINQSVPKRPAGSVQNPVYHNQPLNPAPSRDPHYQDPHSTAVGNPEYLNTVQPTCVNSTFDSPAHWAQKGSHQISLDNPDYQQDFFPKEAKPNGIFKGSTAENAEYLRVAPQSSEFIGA

[4] = target: Epidermal growth factor receptor (Homo sapiens, UniProt P00533, L858R/T790M); assay: Inhibition of EGFR L858R/T790M mutant (unknown origin) by ELISA
Chain of Epidermal growth factor receptor (Homo sapiens, UniProt P00533, L858R/T790M) (P00533 25-1210 T790M/L858R limits assumed): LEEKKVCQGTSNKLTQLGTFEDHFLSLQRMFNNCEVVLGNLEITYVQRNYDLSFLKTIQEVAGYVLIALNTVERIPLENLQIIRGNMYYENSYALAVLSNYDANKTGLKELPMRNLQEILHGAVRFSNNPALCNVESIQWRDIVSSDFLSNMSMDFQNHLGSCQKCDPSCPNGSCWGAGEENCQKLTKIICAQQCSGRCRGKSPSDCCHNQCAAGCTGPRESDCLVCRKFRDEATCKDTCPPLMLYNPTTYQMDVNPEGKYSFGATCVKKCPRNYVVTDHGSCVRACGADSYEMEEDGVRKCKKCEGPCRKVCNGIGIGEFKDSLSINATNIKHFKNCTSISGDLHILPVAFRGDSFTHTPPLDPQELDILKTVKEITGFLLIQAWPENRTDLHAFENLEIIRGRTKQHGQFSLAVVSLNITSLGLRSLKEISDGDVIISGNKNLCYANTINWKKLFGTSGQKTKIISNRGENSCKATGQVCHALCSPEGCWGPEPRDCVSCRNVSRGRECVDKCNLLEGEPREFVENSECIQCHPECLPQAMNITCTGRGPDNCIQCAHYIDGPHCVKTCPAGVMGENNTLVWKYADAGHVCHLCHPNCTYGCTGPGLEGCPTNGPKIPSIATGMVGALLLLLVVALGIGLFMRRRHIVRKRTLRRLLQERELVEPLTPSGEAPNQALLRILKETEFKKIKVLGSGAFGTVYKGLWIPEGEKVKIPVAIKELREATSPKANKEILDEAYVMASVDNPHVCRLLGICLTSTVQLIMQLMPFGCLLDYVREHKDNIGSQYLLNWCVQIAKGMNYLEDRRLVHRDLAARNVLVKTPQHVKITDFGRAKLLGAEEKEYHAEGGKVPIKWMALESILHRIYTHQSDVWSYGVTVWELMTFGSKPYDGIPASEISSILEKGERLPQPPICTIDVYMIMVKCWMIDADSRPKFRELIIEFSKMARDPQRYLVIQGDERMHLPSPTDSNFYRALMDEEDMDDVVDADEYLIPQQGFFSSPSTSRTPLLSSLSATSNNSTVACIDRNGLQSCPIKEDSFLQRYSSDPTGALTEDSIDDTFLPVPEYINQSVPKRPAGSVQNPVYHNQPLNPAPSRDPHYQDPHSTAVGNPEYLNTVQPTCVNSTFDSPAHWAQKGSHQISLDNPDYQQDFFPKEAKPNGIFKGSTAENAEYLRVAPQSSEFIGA

[5] = Cytotoxicity against mouse IL-3 dependent BaF3 cells assessed as inhibition of cell growth incubated for 72 hrs by CCK-8 assay; type: toxicity, cell-based; details: BaF3 cells (IL-3 dependent)
[6] = test system: BaF3; assay: Antiproliferative activity against mouse BaF3 cells stably expressing EGFR L858R/T790M/C797S mutant assessed as inhibition of cell growth incubated for 72 hrs by CCK-8 assay; type: functional, cell-based; details: BaF3, 72 h
[7] = test system: PC-9; assay: Antiproliferative activity against human osimertinib-resistant PC-9 cells harboring EGFR 19 del/T790M/C797S mutant assessed as reduction in cell viability incubated for 72 hrs by CCK-8 assay; type: functional, cell-based; details: PC-9, 72 h
[8] = test system: A-431; assay: Antiproliferative activity against human A-431 cells harboring wild type EGFR assessed as reduction in cell viability incubated for 72 hrs by CCK-8 assay; type: functional, cell-based; details: A-431, 72 h
[9] = test system: BaF3; assay: Antiproliferative activity against mouse BaF3 cells harboring EGFR 19 del/T790M/C797S mutant assessed as reduction in cell viability incubated for 72 hrs by CCK8 assay; type: functional, cell-based; details: BaF3, 72 h
[10] = test system: Epidermal growth factor receptor (Homo sapiens), P00533 [UNDEFINED MUTATION]; assay: Inhibition of EGFR 19 del/T790M/C797S mutant in human starved osimertinib-resistant PC-9 cells assessed as reduction in EGFR phosphorylation incubated for 120 mins followed by EGF stimulation for 15 mins by Western blot analysis; type: cell-based; details: time 135.0 min, DDE = dose-dependent effect
[11] = test system: Epidermal growth factor receptor (Homo sapiens), P04626+P00533+Q15303+P21860 [L858R,T790M,C797S]; assay: Inhibition of EGFR L858R/T790M/[…] mutant in mouse starved BaF3 cells assessed as reduction in EGFR phosphorylation incubated for 120 mins followed by EGF stimulation for 15 mins by Western blot analysis; type: cell-based; details: time 135.0 min, DDE = dose-dependent effect
[12] = test system: Epidermal growth factor receptor (Homo sapiens), P00533 [UNDEFINED MUTATION]; assay: Inhibition of EGFR 19 del/T790M/C797S mutant in human starved osimertinib-resistant PC-9 cells assessed as reduction in ERK phosphorylation incubated for 120 mins followed by EGF stimulation for 15 mins by Western blot analysis; type: cell-based; details: time 135.0 min, DDE = dose-dependent effect
[13] = test system: BaF3; assay: Inhibition of EGFR 19del/T790M/[…] mutant in mouse starved BaF3 cells assessed as reduction in ERK phosphorylation incubated for 120 mins followed by EGF stimulation for 15 mins by Western blot analysis; type: cell-based; details: time 135.0 min, DDE = dose-dependent effect
[14] = test system: BaF3; assay: Inhibition of EGFR 19del/T790M/[…] mutant in mouse starved BaF3 cells assessed as reduction in EGFR phosphorylation incubated for 120 mins followed by EGF stimulation for 15 mins by Western blot analysis; type: cell-based; details: time 135.0 min, DDE = dose-dependent effect
[15] = test system: Epidermal growth factor receptor (Homo sapiens), P04626+P00533+Q15303+P21860 [L858R,T790M,C797S]; assay: Inhibition of EGFR L858R/T790M/[…] mutant in mouse starved BaF3 cells assessed as reduction in ERK phosphorylation incubated for 120 mins followed by EGF stimulation for 15 mins by Western blot analysis; type: cell-based; details: time 135.0 min, DDE = dose-dependent effect

Chain of Epidermal growth factor receptor (Homo sapiens, UniProt P00533) (P00533 whole entry): as the sequence (P00533 whole entry, looked up, stated change not applied) above

Row | Structure (SMILES) | IC50 [1] | IC50 [2] | IC50 [3] | IC50 [4] | IC50 at 72 h [5] | IC50 [6] | also measured
1 | COc1cc(N2CCC(N3CCN(C)CC3)CC2)ccc1Nc1ncc(Cl)c(-c2c[nH]c3ccccc23)n1 | > 1000 nM | 22.6 nM | 124 nM | 15.6 nM |  |  | 
2 | COc1cc(N2CCC(N3CCN(C)CC3)CC2)ccc1Nc1ncc(Cl)c(-c2cn(S(=O)(=O)C3CC3)c3ccccc23)n1 | > 1000 nM | 33.3 nM | 222 nM | 32.6 nM |  |  | 
3 | CCS(=O)(=O)n1cc2c3ccc(cc31)OCCCCCOc1cc(ccc1N1CCOCC1)Nc1ncc(Cl)c-2n1 | > 1000 nM |  | 19 nM |  | 349 nM | 168 nM | 
4 | CCS(=O)(=O)n1cc(-c2nc(Nc3cc(C)c(N4CCC(N5CCN(C)CC5)CC4)cc3OC)ncc2Cl)c2ccccc21 | 55.9 nM | 69.2 nM | 1.5 nM | 2.7 nM |  |  | 
5 | CCOc1cc(N2CCC(N3CCN(C)CC3)CC2)c(Cl)cc1Nc1ncc(Cl)c(-c2cn(S(=O)(=O)CC)c3ccccc23)n1 | 344 nM | 12 nM | 4.2 nM | 7.5 nM | 7860 nM | 3150 nM | 
6 | CCS(=O)(=O)n1cc2c3ccc(cc31)OCCCCCCCOc1cc(ccc1N1CCOCC1)Nc1ncc(Cl)c-2n1 | > 1000 nM |  | 89.9 nM |  | 773 nM | 180 nM | 
7 | CCS(=O)(=O)n1cc2c3ccc(cc31)OCCCCCCCCOc1cc(ccc1N1CCOCC1)Nc1ncc(Cl)c-2n1 | > 1000 nM |  | 142 nM |  | 2440 nM | 450 nM | 
8 | CCS(=O)(=O)n1cc2c3ccc(cc31)OCCCCOc1cc(ccc1N1CCOCC1)Nc1ncc(Cl)c-2n1 | > 1000 nM |  | > 1000 nM |  |  |  | 
9 | COc1cc(N2CCC(N3CCN(C)CC3)CC2)ccc1Nc1ncc(Cl)c(Nc2ccccc2P(C)(C)=O)n1 [BRIGATINIB] |  |  |  |  | 1910 nM | 610 nM | IC50 [7]: 1450 nM; IC50 [8]: 1360 nM; IC50 [9]: 492 nM
10 | CCS(=O)(=O)n1cc(-c2nc(Nc3cc(C(C)C)c(N4CCC(N5CCN(C)CC5)CC4)cc3OC)ncc2Cl)c2ccccc21 | > 1000 nM | 116 nM | 478 nM | 74.3 nM |  |  | 
11 | CCc1cc(N2CCOCC2)c2cc1Nc1ncc(Cl)c(n1)-c1cn(S(=O)(=O)CC)c3cc(ccc13)OCCCCCCO2 | > 1000 nM |  | 32.1 nM |  | 4640 nM | 142 nM | 
12 | CCS(=O)(=O)n1cc(-c2nc(Nc3ccc(N4CCC(N5CCN(C)CC5)CC4)c(Cl)c3OC)ncc2Cl)c2ccccc21 | > 1000 nM | > 1000 nM | > 1000 nM | > 1000 nM |  |  | 
13 | CCc1cc(Nc2ncc(Cl)c(-c3cn(S(=O)(=O)CC)c4ccccc34)n2)c(OC)cc1N1CCC(N2CCN(C)CC2)CC1 | 262 nM | 54.8 nM | 21.8 nM | 6.3 nM |  |  | 
14 | CCS(=O)(=O)n1cc(-c2nc(Nc3cc(Cl)c(N4CCC(N5CCN(C)CC5)CC4)cc3C)ncc2Cl)c2ccccc21 | 547 nM | 4.7 nM | 1.6 nM | 16.3 nM | 1320 nM | 410 nM | 
15 | CCS(=O)(=O)n1cc2c3ccc(cc31)OCCCCCCOc1cc(c(C3CCCC3)cc1N1CCOCC1)Nc1ncc(Cl)c-2n1 | > 1000 nM |  | 165 nM |  |  |  | 
16 | CCS(=O)(=O)n1cc(-c2nc(Nc3cc(Cl)c(N4CCC(N5CCN(C)CC5)CC4)cc3OC)ncc2Cl)c2ccccc21 | 816 nM | 25.6 nM | 4.3 nM | 6.6 nM | 4920 nM | 2610 nM | 
17 | COc1cc(N2CCC(N3CCN(C)CC3)CC2)ccc1Nc1ncc(Cl)c(-c2cn(S(=O)(=O)C(C)C)c3ccccc23)n1 | > 1000 nM | 24.2 nM | 145 nM | 18 nM |  |  | 
18 | C=CC(=O)Nc1cc(Nc2nccc(-c3cn(C)c4ccccc34)n2)c(OC)cc1N(C)CCN(C)C [OSIMERTINIB] |  |  |  |  | 3520 nM | 4270 nM | IC50 [7]: 5430 nM; IC50 [8]: […]; IC50 [9]: 6070 nM
19 | CCS(=O)(=O)n1cc2c3ccc(cc31)OCCCCCCOc1cc(c(C)cc1N1CCOCC1)Nc1ncc(Cl)c-2n1 | 308 nM |  | 23.6 nM |  | 2080 nM | 36 nM | inhibition [10]: Dde; inhibition [11]: Dde; inhibition [12]: Dde; IC50 [7]: 644 nM; inhibition [13]: Dde; inhibition [14]: Dde; IC50 [8]: 2000 nM; IC50 [9]: 52 nM; inhibition [15]: Dde
20 | COc1cc(N2CCC(N3CCN(C)CC3)CC2)ccc1Nc1ncc(Cl)c(-c2cn(S(C)(=O)=O)c3ccccc23)n1 | > 1000 nM | 1.9 nM | 41.9 nM | 5.5 nM |  |  | 
21 | COc1cc(N2CCC(N3CCN(C)CC3)CC2)ccc1Nc1ncc(Cl)c(-c2cn(C(C)=O)c3ccccc23)n1 | > 1000 nM | 8.5 nM | 77.8 nM | 12.9 nM |  |  | 
22 | CCS(=O)(=O)n1cc2c3ccc(cc31)OCCCCCCOc1cc(ccc1N1CCOCC1)Nc1ncc(Cl)c-2n1 | 236 nM |  | 6.2 nM |  | 293 nM | 16 nM | 
23 | CCS(=O)(=O)n1cc2c3cc(ccc31)OCCCCCCOc1cc(ccc1N1CCOCC1)Nc1ncc(Cl)c-2n1 | > 1000 nM |  | > 1000 nM |  |  |  | 
24 | CCS(=O)(=O)n1cc2c3ccc(cc31)OCCCCCCOc1cc(c(Cl)cc1N1CCOCC1)Nc1ncc(Cl)c-2n1 | > 1000 nM |  | 57.8 nM |  | > 10000 nM | 140 nM | 
25 | CCS(=O)(=O)n1cc2c3ccc(cc31)OCCCCCCOc1cc(c(F)cc1N1CCOCC1)Nc1ncc(Cl)c-2n1 | 885 nM |  | 28 nM |  | 2560 nM | 66 nM | 
26 | CCS(=O)(=O)n1cc(-c2nc(Nc3ccc(N4CCC(N5CCN(C)CC5)CC4)cc3OC)ncc2Cl)c2ccccc21 | > 1000 nM | 5.6 nM | 34.8 nM | 5.6 nM |  |  | 
27 | CCS(=O)(=O)n1cc2c3ccc(cc31)OCCCCCCOc1cc(c(C3CC3)cc1N1CCOCC1)Nc1ncc(Cl)c-2n1 | > 1000 nM |  | 56.4 nM |  | > 10000 nM | 263 nM | 
28 | CCS(=O)(=O)n1cc(-c2nc(Nc3ccc(N4CCC(N5CCN(C)CC5)CC4)c(Cl)c3)ncc2Cl)c2ccccc21 | 466 nM | 4.9 nM | 14.4 nM | 2.2 nM |  |  | 
29 | CCS(=O)(=O)n1cc2c3cc(ccc31)OCCCCCOc1cc(ccc1N1CCOCC1)Nc1ncc(Cl)c-2n1 | > 1000 nM |  | > 1000 nM |  |  |  | 
30 | CCS(=O)(=O)n1cc(-c2nc(Nc3cc(Cl)c(N4CCC(N5CCN(C)CC5)CC4)cc3OC(C)C)ncc2Cl)c2ccccc21 | 413 nM | 8.1 nM | 30.8 nM | 2.1 nM | > 10000 nM | 2770 nM | 
